Reference: article PMC9029893 (International Journal of Molecular Sciences, 2022)
Values belong to the compound of their own block, whether it stands above or below them.

What was measured:
HUVEC cells [1] = test: HUVEC migration, wound-healing assay (JuLI Stage); type: cell-based, human
Experimental: The effects of compounds 1–5 on HUVEC migration were determined using the JuLI™ Stage system (NanoEntek, Seoul, Korea): a real-time cell history recorder allowing for live cell imaging and analysis. The procedure for the migration experiments has been published elsewhere in more detail. Concisely, HUVECs were seeded at a density of 10,000 cells per well on 96-well plates and incubated at standard conditions for 24 h. Following this, a wound was made with a scratcher (NanoEntek, Seoul, Korea). The cells were then rinsed with 100 μL of fresh EGM2 medium, and treated with biguanides 1–5 at the concentrations of 0.3 and 1.0 mM. The cells were incubated and monitored continuously every 10 min for 36 h at 37 °C, 5% CO2. Analysis of obtained images of cell migration, and measurements of the width of the scratch area were performed using dedicated software (NanoEntek, Seoul, Korea). The results were presented as mean ± SD, n = 4–8. The CV for the method was estimated as 14.2–24.4%, depending on the time point (n = 8).

factor X = target: T1, factor X (Homo sapiens, UniProt P00742); test: Factor X activity; type: biochemical
T1 construct: 50 µL of four-fold diluted PPP, 50 μL of deficient plasma factor X, 10 μL of the examined compound; from tissue; host or cells: platelet-poor plasma (PPP), mixed with factor X-depleted plasma (Bio-Ksel)
T1 sequence (P00742 41-488): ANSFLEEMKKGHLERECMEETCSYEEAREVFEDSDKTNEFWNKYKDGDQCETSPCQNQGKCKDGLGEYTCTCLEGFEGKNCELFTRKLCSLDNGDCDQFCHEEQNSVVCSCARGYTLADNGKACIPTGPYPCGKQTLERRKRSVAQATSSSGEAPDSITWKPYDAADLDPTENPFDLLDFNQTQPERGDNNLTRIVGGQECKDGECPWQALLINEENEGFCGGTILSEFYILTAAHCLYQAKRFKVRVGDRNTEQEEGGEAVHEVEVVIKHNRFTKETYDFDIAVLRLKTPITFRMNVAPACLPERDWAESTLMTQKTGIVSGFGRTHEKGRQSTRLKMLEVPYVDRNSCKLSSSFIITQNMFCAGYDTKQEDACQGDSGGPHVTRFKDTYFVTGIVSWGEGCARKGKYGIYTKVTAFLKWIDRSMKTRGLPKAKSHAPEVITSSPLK
Experimental: The activity of FX was measured optically using deficient plasma factor X [75]. The content of each sample was as follows: 50 µL of four-fold diluted PPP, 50 μL of deficient plasma factor X, 10 μL of the examined compound, and 100 µL PT reagent. The control samples contained 10 μL of distilled water and methanol (1:1). The measurement of PT time was recorded using a CoagChrom-3003 coagulometer (Bio-Ksel, Grudziadz, Poland). The activity of factor X was counted using a calibration curve (R^2 = 0.999) performed on a calibrator diluted in the range 1:5–1:80 [76]. The variation in plasma coagulation time is proportional to the concentration and activity of factor X in the patient plasma treated with the tested compounds. The coefficient of variability for the method was calculated as CV = 1.80%. The reference values for factor X activity ranged from 77–131%.

antithrombin III (AT) = antithrombin III (AT) (Homo sapiens, UniProt P01008); test: Activity of antithrombin III (AT); type: biochemical
Chain of antithrombin III (AT) (P01008 33-464): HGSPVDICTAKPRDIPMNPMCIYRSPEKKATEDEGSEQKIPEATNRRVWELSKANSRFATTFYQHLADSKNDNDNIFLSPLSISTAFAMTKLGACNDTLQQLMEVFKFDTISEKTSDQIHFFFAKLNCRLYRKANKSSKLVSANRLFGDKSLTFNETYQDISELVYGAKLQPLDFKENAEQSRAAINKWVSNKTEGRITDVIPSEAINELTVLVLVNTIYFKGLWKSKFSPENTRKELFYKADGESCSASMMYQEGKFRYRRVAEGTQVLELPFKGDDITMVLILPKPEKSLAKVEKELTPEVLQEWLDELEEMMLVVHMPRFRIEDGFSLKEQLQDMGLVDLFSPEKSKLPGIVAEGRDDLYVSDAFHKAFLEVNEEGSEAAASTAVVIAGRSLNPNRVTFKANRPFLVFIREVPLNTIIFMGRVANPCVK
Experimental: The activity of AT in human plasma was estimated spectrophotometrically using a diagnostic laboratory method. […] In the control samples, 10 μL of distilled water and methanol (1:1) was used. The reaction was initiated by the addition of a chromogenic substrate dissolved in water for injection; as a result, p-nitroaniline was released proportionally to the level of AT. The evaluation of AT level was performed on the basis of a calibration curve performed on calibrator diluted in the range 1:30–1:120 (λ = 405 nm) by the coagulometer program (CoagChrom-3003 Bio Ksel, Grudziadz, Poland). The coefficient of variability for the method (CV) was 2.69%, and the reference range was 80%–130%.

HUVEC cells [2] = test: Glucose utilization assay (2-NBDG uptake); type: cell-based, human; settings: 24 h, then insulin and 2-NBDG
Experimental: HUVEC were seeded at a density of 20,000 cells per well in 48-well plates, and were cultured in standard conditions for 24 h (medium EGM-2; volume 0.2 mL). Following this, compounds 1–8 were added at concentrations of 0.1 and 0.3 mM, and the HUVECs were incubated for another 24 h. Cells treated with ᴅ-glucose (final concentration in a sample 0.1 mM) were used as positive controls. On the following day, the cells were rinsed with PBS (Biomed Lublin, Lublin, Poland) and cultured for two hours in glucose-free DMEM medium supplemented with 1% BSA (bovine serum albumin, Sigma, St. Louis, MO, USA). Then, the cells were co-treated with insulin (final concentration 0.0001 mM) for 30 min. Afterwards, the medium was discarded and the cells were treated with 2-NBDG (final concentration 0.05 mM) for 30 min, followed by removal of the solutions of each well. The cells were washed twice with 100 µL PBS, and lysed using 1% Triton X-100 solution in PBS. The fluorescence was recorded using a microplate reader (Biotek, Instruments, Winooski, VT, USA) at 480/530 nm.
The concentration of intracellular 2-NBDG was calculated using a calibration curve obtained using 2-NBDG at concentrations ranging from 0.0001 to 0.025 mM in lysis buffer. The results are presented as mean ± SD, n = 4–6. The coefficient of variation for the assay was calculated (CV = 2.2%, n = 8).

[3] = test system: coagulation in human citrate plasma; test: Coagulation assay (endogenous thrombin generation); type: biochemical
Experimental: These reagents induce a feedback reaction leading to the generation of endogenous thrombin, and coagulation. The other experimental conditions were the same as for the CL-test (Section 4.12).
The obtained curves were analyzed using dedicated software that estimates the following parameters: TGt—thrombin generation time (s), Fmax—maximum clotting (%T), Tf—plasma clotting time (s), Fvo—initial plasma clotting velocity (%T/min), Sf—area under the clot formation curve (%Txmin), Tc—clot stabilization time (s), S—area under the curve of coagulation (%Txmin).

Factor X activity (factor X; 0.3 mM): 107.60 ± 4.62% | Factor X activity (factor X; 0.6 mM): 104.20 ± 4.97% | Factor X activity (factor X; 1.5 mM): 97.40 ± 8.05% | activity of AT III (antithrombin III (AT); 0.06 mM): 110.25 ± 8.34% | activity of AT III (antithrombin III (AT); 0.3 mM): 115.25 ± 6.18% | activity of AT III (antithrombin III (AT); 0.6 mM): 120.00 ± 2.71% | activity of AT III (antithrombin III (AT); 1.5 mM): 123.00 ± 5.2%
Structure (SMILES): CCCCS(=O)(=O)NC(N)=NC(=N)N(C)C [Compound 1]
wound width (HUVEC cells [1]; 0.3 mM, 6 hours): 491.9 ± 31.7 µm | wound width (HUVEC cells [1]; 0.3 mM, 12 hours): 421.2 ± 5.9 µm | wound width (HUVEC cells [1]; 0.3 mM, 18 hours): 365.2 ± 35.8 µm | wound width (HUVEC cells [1]; 0.3 mM, 24 hours): 336.7 ± 39.0 µm | wound width (HUVEC cells [1]; 0.3 mM, Start): 605.8 ± 38.63 µm | wound width (HUVEC cells [1]; 1.0 mM, 6 hours): 461.9 ± 33.4 µm | wound width (HUVEC cells [1]; 1.0 mM, 12 hours): 375.1 ± 29.9 µm | wound width (HUVEC cells [1]; 1.0 mM, 18 hours): 344.4 ± 32.8 µm | wound width (HUVEC cells [1]; 1.0 mM, 24 hours): 337.5 ± 47.3 µm | wound width (HUVEC cells [1]; 1.0 mM, Start): 589.1 ± 36.3 µm | Glucose uptake (intracellular 2-NBDG) (HUVEC cells [2]; 0.1 mM): 0.0134 ± 0.0004 mM | Glucose uptake (intracellular 2-NBDG) (HUVEC cells [2]; 0.3 mM): 0.0142 ± 0.0007 mM | Fmax—maximum clotting ([3]; 0.06 mM): 76.30 ± 7.79 %T | Fvo—initial plasma clotting velocity ([3]; 0.06 mM): 97.22 ± 36.13 %T/min | Sc—area under the curve of a stable clot formation ([3]; 0.06 mM): 458.27 ± 113.77 %T x min | Sf—area under the clot formation curve ([3]; 0.06 mM): 140.16 ± 31.01 %T x min | S—overall potential of clot formation ([3]; 0.06 mM): 1449.09 ± 154.09 %T x min | TGt—thrombin generation time ([3]; 0.06 mM): 161.33 ± 35.27 s | Tf—plasma clotting time ([3]; 0.06 mM): 155.67 ± 45.29 s | Fmax—maximum clotting ([3]; 0.3 mM): 82.67 ± 4.79 %T | Fvo—initial plasma clotting velocity ([3]; 0.3 mM): 117.65 ± 36.38 %T/min | Sc—area under the curve of a stable clot formation ([3]; 0.3 mM): 544.47 ± 81.13 %T x min | Sf—area under the clot formation curve ([3]; 0.3 mM): 104.53 ± 38.44 %T x min | S—overall potential of clot formation ([3]; 0.3 mM): 1586.01 ± 103.04 %T x min | TGt—thrombin generation time ([3]; 0.3 mM): 162.33 ± 37.96 s | Tf—plasma clotting time ([3]; 0.3 mM): 109.63 ± 40.06 s | Fmax—maximum clotting ([3]; 0.6 mM): 75.62 ± 9.88 %T | Fvo—initial plasma clotting velocity ([3]; 0.6 mM): 96.52 ± 20.91 %T/min | Sc—area under the curve of a stable clot formation ([3]; 0.6 mM): 444.40 ± 91.71 %T x min | Sf—area under the clot formation curve ([3]; 0.6 mM): 119.01 ± 48.07 %T x min | S—overall potential of clot formation ([3]; 0.6 mM): 1442.42 ± 198.39 %T x min | TGt—thrombin generation time ([3]; 0.6 mM): 176.83 ± 57.02 s | Tf—plasma clotting time ([3]; 0.6 mM): 138.77 ± 59.29 s | Fmax—maximum clotting ([3]; 1.5 mM): 74.15 ± 7.83 %T | Fvo—initial plasma clotting velocity ([3]; 1.5 mM): 107.77 ± 35.80 %T/min | Sc—area under the curve of a stable clot formation ([3]; 1.5 mM): 452.95 ± 102.22 %T x min | Sf—area under the clot formation curve ([3]; 1.5 mM): 114.89 ± 64.82 %T x min | S—overall potential of clot formation ([3]; 1.5 mM): 1435.77 ± 143.80 %T x min | TGt—thrombin generation time ([3]; 1.5 mM): 172.00 ± 43.56 s | Tf—plasma clotting time ([3]; 1.5 mM): 135.33 ± 75.79 s

Factor X activity (factor X; 0.3 mM): 107.40 ± 6.19% | Factor X activity (factor X; 0.6 mM): 104.00 ± 5.34% | Factor X activity (factor X; 1.5 mM): 107.00 ± 4.00% | activity of AT III (antithrombin III (AT); 0.06 mM): 121.00 ± 4.90% | activity of AT III (antithrombin III (AT); 0.3 mM): 127.75 ± 10.44% | activity of AT III (antithrombin III (AT); 0.6 mM): 125.75 ± 10.87% | activity of AT III (antithrombin III (AT); 1.5 mM): 129.00 ± 11.46%
Structure (SMILES): CCCCCCCCS(=O)(=O)NC(N)=NC(=N)N(C)C [Compound 2]
wound width (HUVEC cells [1]; 0.3 mM, 6 hours): 493.8 ± 133.1 µm | wound width (HUVEC cells [1]; 0.3 mM, 12 hours): 442.4 ± 142.9 µm | wound width (HUVEC cells [1]; 0.3 mM, 18 hours): 351.4 ± 82.6 µm | wound width (HUVEC cells [1]; 0.3 mM, 24 hours): 328.6 ± 56.9 µm | wound width (HUVEC cells [1]; 0.3 mM, Start): 637.4 ± 116.3 µm | wound width (HUVEC cells [1]; 1.0 mM, 6 hours): 590.8 ± 40.2 µm | wound width (HUVEC cells [1]; 1.0 mM, 12 hours): 541.5 ± 99.2 µm | wound width (HUVEC cells [1]; 1.0 mM, 18 hours): 453.1 ± 106.1 µm | wound width (HUVEC cells [1]; 1.0 mM, 24 hours): 357.2 ± 68.1 µm | wound width (HUVEC cells [1]; 1.0 mM, Start): 712.4 ± 56.5 µm | Glucose uptake (intracellular 2-NBDG) (HUVEC cells [2]; 0.1 mM): 0.0139 ± 0.0003 mM | Glucose uptake (intracellular 2-NBDG) (HUVEC cells [2]; 0.3 mM): 0.0146 ± 0.001 mM | Fmax—maximum clotting ([3]; 0.06 mM): 85.20 ± 6.52 %T | Fvo—initial plasma clotting velocity ([3]; 0.06 mM): 124.35 ± 37.66 %T/min | Sc—area under the curve of a stable clot formation ([3]; 0.06 mM): 562.66 ± 156.02 %T x min | Sf—area under the clot formation curve ([3]; 0.06 mM): 91.44 ± 30.65 %T x min | S—overall potential of clot formation ([3]; 0.06 mM): 1638.19 ± 135.59 %T x min | TGt—thrombin generation time ([3]; 0.06 mM): 151.33 ± 26.37 s | Tf—plasma clotting time ([3]; 0.06 mM): 98.28 ± 33.46 s | Fmax—maximum clotting ([3]; 0.3 mM): 85.12 ± 5.67 %T | Fvo—initial plasma clotting velocity ([3]; 0.3 mM): 142.17 ± 46.90 %T/min | Sc—area under the curve of a stable clot formation ([3]; 0.3 mM): 602.85 ± 84.63 %T x min | Sf—area under the clot formation curve ([3]; 0.3 mM): 79.63 ± 20.32 %T x min | S—overall potential of clot formation ([3]; 0.3 mM): 1641.98 ± 118.29 %T x min | TGt—thrombin generation time ([3]; 0.3 mM): 135.67 ± 25.90 s | Tf—plasma clotting time ([3]; 0.3 mM): 85.08 ± 25.10 s | Fmax—maximum clotting ([3]; 0.6 mM): 83.60 ± 6.72 %T | Fvo—initial plasma clotting velocity ([3]; 0.6 mM): 140.83 ± 37.45 %T/min | Sc—area under the curve of a stable clot formation ([3]; 0.6 mM): 583.07 ± 90.13 %T x min | Sf—area under the clot formation curve ([3]; 0.6 mM): 88.00 ± 18.58 %T x min | S—overall potential of clot formation ([3]; 0.6 mM): 1611.84 ± 135.58 %T x min | TGt—thrombin generation time ([3]; 0.6 mM): 153.33 ± 21.05 s | Tf—plasma clotting time ([3]; 0.6 mM): 91.58 ± 19.43 s | Fmax—maximum clotting ([3]; 1.5 mM): 76.35 ± 9.75 %T | Fvo—initial plasma clotting velocity ([3]; 1.5 mM): 120.32 ± 48.40 %T/min | Sc—area under the curve of a stable clot formation ([3]; 1.5 mM): 511.33 ± 178.11 %T x min | Sf—area under the clot formation curve ([3]; 1.5 mM): 87.66 ± 44.66 %T x min | S—overall potential of clot formation ([3]; 1.5 mM): 1467.86 ± 181.79 %T x min | TGt—thrombin generation time ([3]; 1.5 mM): 170.50 ± 31.73 s | Tf—plasma clotting time ([3]; 1.5 mM): 101.45 ± 38.76 s
